Values of other authors, collected in patent US4127527A, “Novel pentadecapeptides, intermediates therefor, and compositions and methods employing said pentadecapeptides” (priority 1977, dated 1978).

Assays:
[1] = tested on: brain opiate receptor sites; details: natural peptide; Bradbury et al., Nature 260, 793 (1976)
rat = details: injected directly into the brain of the rat; Belluzzi et al., Nature 260, 625 (1976)

H-Tyr-Gly-Gly-Phe-Met-OH [methionine enkephalin]
binding to partially purified brain opiate receptor sites [1]: binds stereo-specifically | analgesic activity (rat): only weak analgesic agent of short duration
